# Source: ChEMBL document CHEMBL2401621, “Design, synthesis and antibacterial evaluation of novel AHL analogues” (2013)
# Assays:
# Format in all cases: functional
# [1] = test system: Escherichia coli; test: Antibacterial activity against Escherichia coli after 18 hrs by broth microdilution method
# [2] = test system: Pseudomonas aeruginosa; test: Antibacterial activity against Pseudomonas aeruginosa after 18 hrs by broth microdilution method
# [3] = test system: Staphylococcus aureus; test: Antibacterial activity against Staphylococcus aureus after 18 hrs by broth microdilution method
# [4] = test system: Bacillus subtilis; test: Antibacterial activity against Bacillus subtilis after 18 hrs by broth microdilution method
MIC50 [1] [µg/mL],MIC50 [2] [µg/mL],MIC50 [3] [µg/mL],MIC50 [4] [µg/mL],SMILES
> 128,> 128,> 128,> 128,CCCCCCSC(=S)N[C@H]1CCOC1=O
< 0.25,< 0.25,< 0.25,< 0.25,C[C@H]1COc2c(N3CCN(C)CC3)c(F)cc3c(=O)c(C(=O)O)cn1c23.C[C@H]1COc2c(N3CCN(C)CC3)c(F)cc3c(=O)c(C(=O)O)cn1c23.O [LEVOFLOXACIN]
> 128,> 128,> 128,> 128,CCCCCCCCSC(=S)N[C@H]1CCOC1=O
> 128,> 128,5.62,9.63,O=C(CSC(=S)N[C@H]1CCOC1=O)Nc1ccccc1Cl
67.8,> 128,> 128,> 128,CCCCCCCCCCCCCCSC(=S)N[C@H]1CCOC1=O
> 128,37.2,> 128,> 128,Cc1cccc(NC(=O)CSC(=S)N[C@H]2CCOC2=O)c1
> 128,> 128,50.6,> 128,CCCCCCCCCCCCSC(=S)N[C@H]1CCOC1=O
> 128,> 128,3.5,> 128,O=C(CSC(=S)N[C@H]1CCOC1=O)Nc1ccc(Cl)cc1
> 128,> 128,5.81,1.44,O=C(CSC(=S)N[C@H]1CCOC1=O)Nc1cccc(C(F)(F)F)c1
> 128,48.5,7.72,47.9,O=C(CSC(=S)N[C@H]1CCOC1=O)Nc1ccccc1
> 128,> 128,> 128,> 128,Cc1cccc(NC(=O)CSC(=S)N[C@H]2CCOC2=O)c1C
40.5,> 128,6.53,> 128,O=C(CSC(=S)N[C@H]1CCOC1=O)Nc1ccccc1F
24.9,54.5,3.69,30.2,O=C(CSC(=S)N[C@H]1CCOC1=O)Nc1ccc(Br)cc1
12.8,59.9,8.67,6.29,O=C(CSC(=S)N[C@H]1CCOC1=O)Nc1cccc([N+](=O)[O-])c1
54.2,> 128,9.52,> 128,COc1ccc(NC(=O)CSC(=S)N[C@H]2CCOC2=O)cc1
21,> 128,4.9,5.6,O=C(CSC(=S)N[C@H]1CCOC1=O)Nc1ccc(Cl)cc1Cl
> 128,> 128,> 128,> 128,O=C(CSC(=S)N[C@H]1CCOC1=O)Nc1cccc(Cl)c1
30.6,63.8,3.49,> 128,Cc1ccc(NC(=O)CSC(=S)N[C@H]2CCOC2=O)cc1

SMILES,MIC50 [1] [µg/mL],MIC50 [2] [µg/mL],MIC50 [3] [µg/mL],MIC50 [4] [µg/mL]
CCCCSC(=S)N[C@H]1CCOC1=O,> 128,44.6,> 128,> 128
CCSC(=S)N[C@H]1CCOC1=O,25.2,34.6,> 128,> 128
CSC(=S)N[C@H]1CCOC1=O,17.6,31.9,> 128,> 128
